Values of other authors in patent publication US20220257649A1, “COMBINATION THERAPIES FOR MULTIPLE MYELOMA” (NantCell, Inc., priority 2018, published 2022).

Legend:
[1] = following i.v. administration in mice
[2] = system: aggressive solid and hematological tumor models
IL-15 activity = conditions: in vitro and in vivo
multiple myeloma = conditions: for rate of nearly complete response (CR): in combination with dexamethasone, induction therapy before ASCT; for rate of nearly CR: three-drug induction schedule: bortezomib-dexamethasone plus the named drug
IL-2Rβγ = target: T1, IL-2Rβγ (Homo sapiens, UniProt P14784+P31785); conditions: IL-15 mutant
T1 sequence (P14784 27-551): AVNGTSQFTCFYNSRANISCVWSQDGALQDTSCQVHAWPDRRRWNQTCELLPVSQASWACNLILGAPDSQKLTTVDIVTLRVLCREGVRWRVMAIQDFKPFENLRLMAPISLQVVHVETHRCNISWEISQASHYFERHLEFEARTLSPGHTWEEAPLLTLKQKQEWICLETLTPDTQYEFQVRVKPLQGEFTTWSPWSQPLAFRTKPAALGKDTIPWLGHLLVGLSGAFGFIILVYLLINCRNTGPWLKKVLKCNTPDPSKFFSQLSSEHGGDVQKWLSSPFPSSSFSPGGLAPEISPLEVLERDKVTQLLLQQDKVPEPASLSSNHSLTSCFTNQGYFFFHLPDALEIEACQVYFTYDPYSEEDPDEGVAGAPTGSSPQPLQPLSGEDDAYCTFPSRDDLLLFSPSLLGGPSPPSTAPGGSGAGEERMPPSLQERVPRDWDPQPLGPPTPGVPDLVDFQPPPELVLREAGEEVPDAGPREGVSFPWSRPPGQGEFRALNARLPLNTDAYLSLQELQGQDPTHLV
T1 sequence (P31785 23-369): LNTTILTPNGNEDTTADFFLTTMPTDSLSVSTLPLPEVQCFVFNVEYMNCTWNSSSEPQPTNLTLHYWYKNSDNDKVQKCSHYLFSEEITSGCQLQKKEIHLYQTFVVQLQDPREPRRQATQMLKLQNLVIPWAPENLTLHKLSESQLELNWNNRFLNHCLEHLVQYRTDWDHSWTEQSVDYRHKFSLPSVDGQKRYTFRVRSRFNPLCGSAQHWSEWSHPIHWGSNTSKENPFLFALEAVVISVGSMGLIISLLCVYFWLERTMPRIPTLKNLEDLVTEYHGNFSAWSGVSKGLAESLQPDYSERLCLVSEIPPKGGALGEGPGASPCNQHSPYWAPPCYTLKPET

[3] = system: primary multiple myeloma cells; conditions: in the presence of peripheral lymphocytes
[4] = system: relapsed or refractory multiple myeloma; conditions: alone, with bortezomib, or with lenalidomide and low-dose dexamethasone

N-803: IL-15 super agonist complex: IL-15 mutant (IL-15N72D) bound to an IL-15 receptor α/IgG1 Fc fusion protein
half-life [1]: 25 h
anti-tumor activity ([2]; aggressive solid and hematological tumor models, immunocompetent mice): impressive anti-tumor activity
resistance of cured tumor-bearing mice to re-challenge with the same tumor cells ([2]; mice cured after N-803 treatment): highly resistant to re- challenge
IL-15 activity (IL-15 activity): highly potent IL-15 activity

CC(C)C[C@H](NC(=O)[C@H](Cc1ccccc1)NC(=O)c1cnccn1)B(O)O [bortezomib]
rate of nearly complete response (CR) (multiple myeloma): 16%

COc1cccc2c1C(=O)c1c(O)c3c(c(O)c1C2=O)C[C@@](O)(C(=O)CO)C[C@@H]3O[C@H]1C[C@H](N)[C@H](O)[C@H](C)O1 [doxorubicin]
rate of nearly CR (multiple myeloma): 7%

Nc1cccc2c1CN(C1CCC(=O)NC1=O)C2=O (stereo not drawn) [lenalidomide]
rate of nearly complete response (CR) (multiple myeloma): 15%
rate of nearly CR (multiple myeloma): 57%

IL-15N72D: IL-15 mutant with increased ability to bind IL-2Rβγ; component of N-803
ability to bind IL-2Rβγ (IL-2Rβγ): increased ability to bind IL-2Rβγ

O=P1(N(CCCl)CCCl)NCCCO1 (stereo not drawn) [cyclophosphamide]
rate of nearly CR (multiple myeloma): 39%

Elotuzumab: humanized monoclonal IgG1 antibody directed against CS-1
antibody-dependent cellular cytotoxicity (ADCC) [3]: significant antibody-dependent cellular cytotoxicity (ADCC)
activity [4]: encouraging activity
safety profile [4]: manageable safety profile

O=C1CCC(N2C(=O)c3ccccc3C2=O)C(=O)N1 (stereo not drawn) [Thalidomide]
rate of nearly complete response (CR) (multiple myeloma): 8%
rate of nearly CR (multiple myeloma): 32%
